# From patent publication US20240002846A1, “COMPOSITIONS AND METHODS FOR THE DIAGNOSIS AND TREATMENT OF ITCH” (Duke University, priority 2020, published 2024)
# “Also recorded” adds a separate entry of the source.
# Tests used:
# hTRPV4 = molecular target: T1, hTRPV4 (Homo sapiens, UniProt Q9HBA0); assay: Single-channel recordings of hTRPV4 in HEK293 cells; assay type: biochemical; details: +60 mV; 100 nM GSK101 or 5 μM LPC 18:1
# T1 construct: expressed in transfected cells; host or cells: HEK293 (ATCC CRL-1573)
# T1 sequence (Q9HBA0 whole entry): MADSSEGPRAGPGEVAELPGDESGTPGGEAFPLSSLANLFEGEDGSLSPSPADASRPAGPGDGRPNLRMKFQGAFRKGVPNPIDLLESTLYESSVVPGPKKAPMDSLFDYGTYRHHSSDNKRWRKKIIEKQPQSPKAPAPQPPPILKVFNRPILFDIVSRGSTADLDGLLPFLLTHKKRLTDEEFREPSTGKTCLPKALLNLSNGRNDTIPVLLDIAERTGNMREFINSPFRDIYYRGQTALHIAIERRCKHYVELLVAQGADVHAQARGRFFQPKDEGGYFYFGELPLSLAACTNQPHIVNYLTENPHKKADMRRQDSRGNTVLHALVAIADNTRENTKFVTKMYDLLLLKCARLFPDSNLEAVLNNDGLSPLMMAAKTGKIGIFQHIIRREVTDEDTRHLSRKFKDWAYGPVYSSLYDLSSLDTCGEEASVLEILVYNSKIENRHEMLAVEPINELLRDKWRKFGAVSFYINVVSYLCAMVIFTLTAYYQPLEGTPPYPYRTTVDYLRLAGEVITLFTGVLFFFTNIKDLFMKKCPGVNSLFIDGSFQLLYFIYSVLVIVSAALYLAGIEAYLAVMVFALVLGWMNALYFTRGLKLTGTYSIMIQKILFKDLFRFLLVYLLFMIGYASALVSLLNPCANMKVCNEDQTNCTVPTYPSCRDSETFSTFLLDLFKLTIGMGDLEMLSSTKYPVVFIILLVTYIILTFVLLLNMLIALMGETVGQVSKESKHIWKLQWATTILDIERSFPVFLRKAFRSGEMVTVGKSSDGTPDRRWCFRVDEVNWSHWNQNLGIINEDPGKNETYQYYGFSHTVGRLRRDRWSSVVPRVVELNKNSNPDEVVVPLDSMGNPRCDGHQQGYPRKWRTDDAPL
# Method: Cell culture and transfection. HEK293 cells (ATCC® CRL-1573) were cultured on poly-D-lysine coated coverslips in 24-well plate containing DMEM media with high-Glucose (Gibco, Gaithersburg, MD) supplemented with 10% fetal bovine serum (FBS, HyClone Laboratories, Logan, UT) and 100 U/mL of penicillin/streptomycin (Gibco, Gaithersburg, MD). Cell cultures were maintained with 5% of CO2 in a humidified incubator at 37° C. HEK cells were transfected with rat or human wild type or mutant TRPV4 channels with EGFP or YFP coupled to their C-termini (1.5 μg of plasmid for excised patch clamp and Ca^2+ imaging and 200 ng for single-channel experiments). The jetPEI™ Polyplus transfection reagent (Polyplus Transfection, New York, NY) for electrophysiology or Lipofectamine™ 2000 Reagent (Invitrogen, Waltham, MA) for Ca^2+ imaging were used for transfections per manufacturer's instructions as previously described (Chen et al. Pain 2014, 155, 2662-2672; Morales-Lazaro et al. Nat. Commun. 2016, 7, 13092). To investigate whether miR-146a can directly activate TRPV1 channels or indirectly via TLRs, HEK293 cells were transfected with rTRPV1 or co-transfected rTRPV1 with rTLR7, rTLR2, or rTLR6 (Addgene, Watertown, MA) for Ca^2+ imaging assay. Control cells were transfected with GFP or YFP.
# For single-channel recordings, Borosilicate glass […]) pipettes were used. Recordings were obtained at +60 mV by acquiring several traces of 1-3 s duration. The effect of GSK1016790A or LPC 18:1 on single TRPV4 channels was studied in inside-out. Currents were filtered at 2 kHz and sampled at 5 kHz. […] Single-channel openings and closures were identified with the half-threshold crossing technique (Morales-Lazaro et al. Nat. Commun. 2016, 7, 13092). The channel open probability was calculated as the sum of the total open time divided by the sweep duration. Dwell times and amplitude histograms in the closed or open states were collected in logarithmic time histograms according to the Sine-Sigworth transformation (Sigworth et al. Biophys. J. 1987, 52, 1047-1054). Sums of three or two exponential components were fitted to histograms using a least-squares algorithm.
# [1] = system: extracellular release of miR-146a; assay: Extracellular release of miR-146a from cultured human keratinocytes (RT-qPCR); assay type: cell-based
# Method: (§1) Primary human keratinocytes were cultured as previously described (Chen et al. J. Biol. Chem. 2016, 291, 10252-10262). In brief, surgically discarded foreskin samples, obtained from Duke Children's Hospital in accordance to institutionally approved IRB protocol, were incubated with Dispase (Gibco, Gaithersburg, MD, 4 U/mL) for 12-16 h at 4° C. followed by 0.05% trypsin (Gibco, Gaithersburg, MD) for 10-20 min at 37° C. Cells were maintained in keratinocyte serum-free media (Invitrogen, Waltham, MA) with 5% CO2 at 37° C. and used at passage 2-3.
# Measurement of released vesicles and extracellular miR-146a from cultured keratinocytes or sera Medium for the cultured keratinocytes was replaced with serum-free medium 2 h before LPC stimulation. Fifteen minutes after LPC, the supernatant of the cells was harvested and subjected to two steps of centrifugation (i) 300 g for 5 min to eliminate remaining cells, (ii) 16,000 g for 30 min to eliminate cell debris and apoptotic bodies. Finally, cell-free supernatants were further purified using a Vesicular Isolation kit (Invitrogen, Waltham, MA) according to the manufacturer's instructions, with final product resuspended in ice-cold PBS. Total RNA extraction was then carried out using a Total RNA Isolation kit (Invitrogen, Waltham, MA). […]
# human keratinocytes = assay: Ca2+ imaging in cultured human keratinocytes; assay type: cell-based; details: inhibitor 10 μM
# Method: as §1, with “In” for “Primary human keratinocytes were cultured as previously described (Chen et al. J. Biol. Chem. 2016, 291, 10252-10262). In”
# In vitro and ex vivo Ca^2+ imaging. […] Ca^2+ imaging of cultured cells in response to chemicals was conducted after loading with 5 μM Fura2-AM (Invitrogen, Waltham, MA) for 45 min after a ratiometric Ca^2+-imaging protocol with 340/380-nm blue light for dual excitation. Ratios of emissions were acquired at 0.5 Hz. ΔR/R0 was determined as the fraction of the increase of a given ratio over baseline ratio divided by baseline ratio. […] Control cells received vehicles.
molecule,measurement,setting,value
LPC 18:1,open level (single-channel) amplitude,hTRPV4,3.27±0.41 pA
same,open probability (Po),hTRPV4,0.75±0.08
same,single channel conductance (gi),hTRPV4,54.5 pS
N#CC(=C(/N)Sc1ccccc1N)/C(C#N)=C(\N)Sc1ccccc1N [U0126],effect of MEK inhibitor on LPC-induced release of miR-146a,[1]; 10 μM,eliminated; also recorded: abolished
Cc1c(C(=O)Nc2cccc(C(F)(F)F)c2)cc(-c2ccccc2)n1CCCN1CCOCC1 [HC067047],effect on LPA 18:1 (10 μM) induced Ca2+ signal,human keratinocytes,remained unchanged
same,effect on LPC (10 μM) induced Ca2+ signal,human keratinocytes,significantly reduced
same,effect of TRPV4 inhibitors on LPC-induced release of miR-146a,[1]; inhibitor 10 μM,completely eliminated
